Measured values as given in PubChem BioAssay (NCI).
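Test compounds were applied to cells in 96-well plates for 48 hours at 5 doses. TGI: concentration producing complete growth inhibition.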

Experiments:
Test in all cases: NCI tumour cell line growth inhibition, 48 h
SF-295 CNS = tested on: SF-295 CNS
SNB-75 CNS = tested on: SNB-75 CNS
OVCAR-5 ovarian = tested on: OVCAR-5 ovarian
PC-3 prostate = tested on: PC-3 prostate
NCI-H226 lung = tested on: NCI-H226 lung
OVCAR-4 ovarian = tested on: OVCAR-4 ovarian
IGROV1 ovarian = tested on: IGROV1 ovarian
786-0 renal = tested on: 786-0 renal
T-47D breast = tested on: T-47D breast
HOP-62 NSCLC = tested on: HOP-62 NSCLC
SK-OV-3 ovarian = tested on: SK-OV-3 ovarian
CCRF-CEM leukemia = tested on: CCRF-CEM leukemia
A498 renal = tested on: A498 renal
NCI-H23 lung = tested on: NCI-H23 lung
LOX IMVI melanoma = tested on: LOX IMVI melanoma
MDA-N = tested on: MDA-N
NCI-H522 lung = tested on: NCI-H522 lung
HCT-15 colon = tested on: HCT-15 colon
ACHN renal = tested on: ACHN renal
TK-10 renal = tested on: TK-10 renal
U251 CNS = tested on: U251 CNS
HT29 colon = tested on: HT29 colon
SK-MEL-5 melanoma = tested on: SK-MEL-5 melanoma
MDA-MB-231 breast = tested on: MDA-MB-231 breast
UACC-257 melanoma = tested on: UACC-257 melanoma
UO-31 renal = tested on: UO-31 renal
UACC-62 melanoma = tested on: UACC-62 melanoma
SK-MEL-28 melanoma = tested on: SK-MEL-28 melanoma
MDA-MB-435 = tested on: MDA-MB-435
DU-145 prostate = tested on: DU-145 prostate
NCI-H460 lung = tested on: NCI-H460 lung
SNB-19 CNS = tested on: SNB-19 CNS
HCT-116 colon = tested on: HCT-116 colon
OVCAR-8 ovarian = tested on: OVCAR-8 ovarian
A549 NSCLC = tested on: A549 NSCLC
SK-MEL-2 melanoma = tested on: SK-MEL-2 melanoma
M14 melanoma = tested on: M14 melanoma
CAKI-1 renal = tested on: CAKI-1 renal
EKVX NSCLC = tested on: EKVX NSCLC
SN12C renal = tested on: SN12C renal
HS 578T breast = tested on: HS 578T breast
SF-268 CNS = tested on: SF-268 CNS
SW-620 colon = tested on: SW-620 colon
HOP-92 NSCLC = tested on: HOP-92 NSCLC
HL-60(TB) leukemia = tested on: HL-60(TB) leukemia
NCI/ADR-RES ovarian = tested on: NCI/ADR-RES ovarian
MALME-3M melanoma = tested on: MALME-3M melanoma
COLO 205 colon = tested on: COLO 205 colon
SF-539 CNS = tested on: SF-539 CNS
KM12 colon = tested on: KM12 colon
BT-549 breast = tested on: BT-549 breast
OVCAR-3 ovarian = tested on: OVCAR-3 ovarian
MOLT-4 leukemia = tested on: MOLT-4 leukemia
MCF7 breast = tested on: MCF7 breast

Measured: TGI

CC1(CC2=C(C(=O)NCCO[Si](C)(C)C(C)(C)C)C3(OCCO3)C2=O)OCCO1
93.7 µM: NCI-H522 lung
72.7 µM: MALME-3M melanoma
> 100 µM: all other assays above
